The numbers were not newly measured in the CATMoS acute toxicity set (Mansouri et al. 2021), which cites them from elsewhere.

“And” between values parts separate entries of the source, which are not always exact repeats. Identical values can stand only once. *1 amine or outer side, *2 acyl side, *3 side chain or, on linkers, in order; H or OH if unused. Where a SMILES comes first, the peptide text is derived from it. Bridges are numbered along the chain shown (N, C = ends). Roman numbers before positions name the chains, in order. [ ]: non-standard residue; d: D form. Actinocin(9to1) = Cc1c2oc3c(C)ccc(C(=O)[*:1])c3nc-2c(C(=O)[*:2])c(N)c1=O; NMeV = CN[C@H](C(=O)O)C(C)C; Sar = CNCC(=O)O

The data set in a line: rat acute oral toxicity. Particulars: in vivo.
Broadly, the LD50 is the dose at which mortality reaches 50%. `Cc1c2oc3c(C)ccc(C(=O)N[C@@H]4C(=O)N[C@H](C(C)C)C(=O)N5CCC[C@H]5C(=O)N(C)CC(=O)N(C)[C@@H](C(C)C)C(=O)O[C@@H]4C)c3nc-2c(C(=O)N[C@@H]2C(=O)N[C@H](C(C)C)C(=O)N3CCC[C@H]3C(=O)N(C)CC(=O)N(C)[C@@H](C(C)C)C(=O)O[C@@H]2C)c(N)c1=O` (I: T[dV]P[Sar][NMeV] / II: T[dV]P[Sar][NMeV]; ester I:1-I:C, II:1-II:C; linker I:N-II:N via Actinocin(9to1)): the LD50 was 7.2 mg/kg.

Regarding `CC(=O)OC(OC(C)=O)C(Cl)CCl` (stereo unspecified), the LD50 was 320 mg/kg.

For the compound `N#CN=c1ccccn1Cc1ccc(Cl)cc1`, the LD50 is 500 mg/kg.

Regarding `C/C=C\COCN(C(=O)CCl)c1c(CC)cccc1CC`, the LD50 was 1630 mg/kg.

For the compound `Nc1c(/N=N/c2ccc(-c3ccc(/N=N/c4cc(S(=O)(=O)O)c5ccccc5c4N)cc3)cc2)cc(S(=O)(=O)O)c2ccccc12`, the LD50 is 15200 mg/kg.

Turning to `O=[N+]([O-])O[C@H]1CO[C@H]2[C@@H]1OC[C@H]2O[N+](=O)[O-]`, the median lethal dose (LD50) is 747 mg/kg.

Turning to `CN(C(=O)c1cc(C(F)(F)F)cc(C(F)(F)F)c1)c1nc(C(F)(F)F)c(Cl)s1`, the LD50 was 501 mg/kg.

`CC12CCC(C(Br)C1=O)C2(C)C` (stereo unspecified): the LD50 is 4450 mg/kg.

Regarding `CCOP(=S)(OCC)SC1CCSc2ccc(Cl)cc21` (stereo unspecified), the LD50 is 63 mg/kg.

For the compound `CCC(CC)CO`, the LD50 is 1850 mg/kg.

Regarding `Cc1ccc(SP(=S)(CCl)OC(C)C)cc1` (stereo unspecified), the median lethal dose (LD50) was 204 mg/kg.

Consider `CCOC(N)=C1Sc2ccccc2C1=O`, for which the LD50 is 4000 mg/kg.

Take `COC(=O)Cc1ccccc1`: the LD50 is 2550 mg/kg.

`CN(C)C(=O)CCNc1ccc(Br)cc1`: the LD50 is 1810 mg/kg.

In the case of `C=CN(CC)N=O`, the LD50 was 88 mg/kg.

Turning to `CC[N+](CC)(CC)Cc1ccccc1`, the LD50 was 2220 mg/kg.

As for `COCCN1C=CC(=C2C(=O)c3ccccc3C2=O)C=C1`, the LD50 is 350 mg/kg.

On to `CCC(CC)C(=O)NC(=Cc1ccc(OC)cc1)C(=O)O`, for which the LD50 was 4000 mg/kg.

Turning to `CC1(C)C(=O)N(Cl)C(=O)N1Br`, the LD50 was 1390 mg/kg.

Turning to `CCCOP(=S)(OCCC)Oc1cnn(C)c(=O)c1OC`, the LD50 was 26 mg/kg.

For the compound `C1CCNC1`, the 50% lethal dose (LD50) is 300 mg/kg.

Consider `COP(=O)(OC)Oc1ccc([N+](=O)[O-])cc1`, for which the LD50 was 3.27 mg/kg.

With `CC[C@@H]1C(=O)OC[C@@H]1Cc1cncn1C`, the LD50 is 911 mg/kg and 402 mg/kg.

Take `CCCCCCS`: the LD50 was 1250 mg/kg.

Regarding `COc1ccccc1C=O`, the LD50 is 2500 mg/kg.

`COc1c(Cl)cc2[nH]c(C(F)(F)F)nc2c1Cl`: the LD50 is 8.03 mg/kg.

Take `O=C1OC(=O)C2CCCCC12` (stereo unspecified): the LD50 was 4040 mg/kg.

Turning to `CC[C@H]1OC(=O)[C@H](C)[C@@H](O[C@H]2C[C@@](C)(OC)[C@@H](O)[C@H](C)O2)[C@H](C)[C@@H](O[C@@H]2O[C@H](C)C[C@H](N(C)C)[C@H]2O)[C@](C)(OC)C[C@@H](C)C(=O)[C@H](C)[C@@H](O)[C@]1(C)O`, the LD50 is 1270 mg/kg.

In the case of `CCSC(C)CC1CC(=O)C(C(=O)CC)C(=O)C1` (stereo unspecified), the LD50 is 170 mg/kg.

As to `CCCCNC(=O)n1c(NC(=O)OC)nc2ccccc21`, the LD50 was 10000 mg/kg.

Consider `CCCCC[C@H](O)/C=C/[C@H]1[C@H](O)CC(=O)[C@@H]1CCCCCCC(=O)O`, for which the LD50 was 228 mg/kg.

For `COc1cc(C=CC(=O)N2CCN(CC(=O)NC(C)C)CC2)cc(OC)c1OC`, the LD50 is 1300 mg/kg.

On to `CC1=NN(c2ccccc2)C(=O)C1`, for which the LD50 was 1920 mg/kg.

Turning to `CCCC(Cn1cncn1)c1ccc(Cl)cc1Cl` (stereo unspecified), the LD50 was 2120 mg/kg.

Take `COP(=O)(OC)OC(C)=CC(=O)OCc1ccc(Cl)cc1`: the LD50 is 139 mg/kg.

With `COc1ccc(CNCC(O)COc2ccc3[nH]c(=O)ccc3c2)cc1OC` (stereo unspecified), the LD50 is 1500 mg/kg.

As to `CNC(=O)ON=C(CSC)C(C)(C)C`, the median lethal dose (LD50) was 8.5 mg/kg.

Consider `Cc1ccccc1C#N`, for which the 50% lethal dose (LD50) was 3200 mg/kg.

Take `CN(c1ccc(Cl)cc1Cl)c1c([N+](=O)[O-])cc([N+](=O)[O-])cc1C(F)(F)F`: the LD50 is 4.5 mg/kg.

With `Cc1onc(-c2c(Cl)cccc2Cl)c1C(=O)N[C@@H]1C(=O)N2[C@@H]1SC(C)(C)[C@@H]2C(=O)O`, the LD50 is 3580 mg/kg.

For `Nc1ccc(F)c([N+](=O)[O-])c1`, the LD50 is 1100 mg/kg.

`OC(COc1ccccc1)COc1ccccc1`: the LD50 was 1450 mg/kg.

For `CCC(N)Cc1c[nH]c2ccccc12` (stereo unspecified), the median lethal dose (LD50) is 49 mg/kg.

With `CN(C)c1ccc(N=Nc2cccc(Br)c2)cc1`, the LD50 was 13000 mg/kg.

As to `CCN1CN1CC` (stereo unspecified), the LD50 was 4000 mg/kg.

As to `CCN(CC)c1nc(NC(C)C)nc(OC)n1`, the LD50 is 885 mg/kg.

`O=C(OCCOc1ccc(Cl)cc1Cl)c1ccccc1`: the LD50 is 1700 mg/kg.

With `CN(C)CCN1C(=O)c2ccccc2N(C)c2ccccc21`, the 50% lethal dose (LD50) is 220 mg/kg.

Regarding `CC(=O)OCCC(C)C`, the 50% lethal dose (LD50) was 16600 mg/kg.

For the compound `O=C1c2c(O)ccc(O)c2C(=O)c2c(NCCNCCO)ccc(NCCNCCO)c21`, the LD50 is 682 mg/kg.

As for `CCCOC(=O)CCC`, the 50% lethal dose (LD50) was 15000 mg/kg.

With `COC(=O)CCC(Cl)C(C)=O` (stereo unspecified), the LD50 is 2050 mg/kg.

Consider `CCOC(=O)C1(c2ccccc2)CCN(CCOCC2CCCO2)CC1` (stereo unspecified), for which the LD50 is 135 mg/kg.

Take `COC(=O)CC(=O)OC`: the LD50 was 5330 mg/kg.

On to `CC(=O)C(C)(C)C`, for which the 50% lethal dose (LD50) is 610 mg/kg.

As to `COP(=S)(OC)Oc1cc(C)n(C)c(=O)c1`, the LD50 was 0.812 mg/kg.
